The text below walks through data of patent US11084829B2, “Ubiquitin-specific-processing protease 7 (USP7) modulators and uses thereof” (RAPT THERAPEUTICS, INC., priority 2018, dated 2021).

The target in the experiment is USP7 (Homo sapiens, UniProt Q93009). The experiment in a line: USP7 inhibitory potency (IC50). Format: biochemical. As for the experimental part: Activity for compounds described herein is provided in Table 2, wherein potency levels are provided as follows: (Potency: USP7 IC50: A<0.01 μM; B=0.01-0.1 μM; C=>0.1 μM.
Sequence of USP7 (Q93009 whole entry): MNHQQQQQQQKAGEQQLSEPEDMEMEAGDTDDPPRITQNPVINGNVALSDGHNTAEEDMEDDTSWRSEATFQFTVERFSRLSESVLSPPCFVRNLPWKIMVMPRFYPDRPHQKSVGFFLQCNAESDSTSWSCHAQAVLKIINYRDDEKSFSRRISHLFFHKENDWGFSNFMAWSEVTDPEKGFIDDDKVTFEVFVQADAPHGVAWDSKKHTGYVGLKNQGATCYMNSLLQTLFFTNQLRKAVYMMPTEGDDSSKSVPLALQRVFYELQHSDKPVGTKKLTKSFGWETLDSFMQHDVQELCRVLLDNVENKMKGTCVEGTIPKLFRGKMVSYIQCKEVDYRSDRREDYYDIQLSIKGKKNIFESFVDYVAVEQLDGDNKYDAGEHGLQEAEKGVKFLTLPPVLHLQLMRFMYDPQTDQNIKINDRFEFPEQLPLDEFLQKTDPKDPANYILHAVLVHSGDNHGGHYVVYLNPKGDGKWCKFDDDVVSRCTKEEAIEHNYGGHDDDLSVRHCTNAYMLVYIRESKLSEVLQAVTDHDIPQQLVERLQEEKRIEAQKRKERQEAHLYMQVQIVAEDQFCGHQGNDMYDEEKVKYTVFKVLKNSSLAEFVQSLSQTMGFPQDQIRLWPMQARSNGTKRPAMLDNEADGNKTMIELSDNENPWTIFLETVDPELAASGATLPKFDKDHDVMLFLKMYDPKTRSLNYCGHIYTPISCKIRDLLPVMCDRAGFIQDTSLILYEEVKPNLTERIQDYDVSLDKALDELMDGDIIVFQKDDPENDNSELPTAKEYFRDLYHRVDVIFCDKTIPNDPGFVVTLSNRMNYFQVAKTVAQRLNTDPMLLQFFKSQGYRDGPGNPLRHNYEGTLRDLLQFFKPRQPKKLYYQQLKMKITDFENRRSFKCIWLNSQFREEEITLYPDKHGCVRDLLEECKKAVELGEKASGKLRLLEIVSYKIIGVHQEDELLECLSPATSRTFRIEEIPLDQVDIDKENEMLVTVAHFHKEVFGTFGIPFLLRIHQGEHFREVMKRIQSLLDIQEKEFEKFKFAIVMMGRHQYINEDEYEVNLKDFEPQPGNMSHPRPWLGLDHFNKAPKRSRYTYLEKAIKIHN

Usually IC50 stands for the point on the concentration scale where inhibition reaches its midpoint. Higher therefore signals weaker potency in that assay.

`Cc1cc(Cl)cc(-c2ccnc3cc(CN4C(=O)C5CC5C4=O)sc23)c1CC1CNCCO1` (stereo not drawn) [Example 102, 3-((7-(5-chloro-3-methyl-2-(morpholin-2-ylmethyl)phenyl)thieno[3,2-b]pyridin-2-yl)methyl)-3-azabicyclo[3.1.0]hexane-2,4-dione]: the IC50 was less than 10 nM.
The compound `Cc1cc(Cl)cc(-c2ccnc3cc(CN4C(=O)C5C(C4=O)C5(C)C)sc23)c1CC1CNCCO1` (stereo not drawn) [Example 103, 3-((7-(5-chloro-3-methyl-2-(morpholin-2-ylmethyl)phenyl)thieno[3,2-b]pyridin-2-yl)methyl)-6,6-dimethyl-3-azabicyclo[3.1.0]hexane-2,4-dione] had an IC50 of less than 10 nM.
The compound `Cc1cc(Cl)cc(-c2ccnc3cc(CN4C(=O)C5CC5C4=O)sc23)c1C[C@H]1OCCN[C@@H]1C` (stereo partly drawn) [Example 104, 3-((7-(5-chloro-3-methyl-2-(((2R,3R)-3-methylmorpholin-2-yl)methyl)phenyl)thieno[3,2-b]pyridin-2-yl)methyl)-3-azabicyclo[3.1.0]hexane-2,4-dione] returned an IC50 of less than 10 nM.
Compound `Cc1cc(Cl)cc(-c2ccnc3cc(CN4C(=O)C5CC5C4=O)sc23)c1C[C@H]1O[C@H](C)CNC1=O` (stereo partly drawn) [Example 105, 3-((7-(5-chloro-3-methyl-2-(((2R,6R)-6-methyl-3-oxomorpholin-2-yl)methyl)phenyl)thieno[3,2-b]pyridin-2-yl)methyl)-3-azabicyclo[3.1.0]hexane-2,4-dione] registered an IC50 of more than 100 nM.
The compound `Cc1cc(Cl)cc(-c2ccnc3cc(CN4C(=O)C5CC5C4=O)sc23)c1C[C@H]1OCCN[C@H]1C` (stereo partly drawn) [Example 106, 3-((7-(5-chloro-3-methyl-2-(((2R,3 S)-3-methylmorpholin-2-yl)methyl)phenyl)thieno[3,2-b]pyridin-2-yl)methyl)-3-azabicyclo[3.1.0]hexane-2,4-dione] showed an IC50 of less than 10 nM.
For the compound `Cc1cc(Cl)cc(-c2ccnc3cc(CN4C(=O)CCCC4=O)sc23)c1CC1CNCCO1` (stereo not drawn) [Example 107, 1-((7-(5-chloro-3-methyl-2-(morpholin-2-ylmethyl)phenyl)thieno[3,2-b]pyridin-2-yl)methyl)piperidine-2,6-dione], the IC50 was less than 10 nM.
`Cc1cc(Cl)cc(-c2ccnc3cc(Cn4c(=O)ccn(C)c4=O)sc23)c1CC1CNCCO1` (stereo not drawn) [Example 108, 3-((7-(5-chloro-3-methyl-2-(morpholin-2-ylmethyl)phenyl)thieno[3,2-b]pyridin-2-yl)methyl)-1-methylpyrimidine-2,4(1H,3H)-dione] displayed an IC50 of less than 10 nM.
For the compound `Cc1cc(Cl)cc(-c2ccnc3cc(Cn4c(=O)ccn(CC(F)(F)F)c4=O)sc23)c1CC1CNCCO1` (stereo not drawn) [Example 109, 3-((7-(5-chloro-3-methyl-2-(morpholin-2-ylmethyl)phenyl)thieno[3,2-b]pyridin-2-yl)methyl)-1-(2,2,2-trifluoroethyl)pyrimidine-2,4(1H,3H)-dione], the IC50 is less than 10 nM.
For `Cc1cc(Cl)cc(-c2ccnc3cc(CN4C(=O)C5CCC5C4=O)sc23)c1CC1CNCCO1` (stereo not drawn) [Example 110, 3-((7-(5-chloro-3-methyl-2-(morpholin-2-ylmethyl)phenyl)thieno[3,2-b]pyridin-2-yl)methyl)-3-azabicyclo[3.2.0]heptane-2,4-dione], the IC50 is less than 10 nM.
In turn, `Cc1cc(Cl)cc(-c2ccnc3cc(Cn4c(=O)ccn(C5CCC5)c4=O)sc23)c1CC1CNCCO1` (stereo not drawn) [Example 111, 3-((7-(5-chloro-3-methyl-2-(morpholin-2-ylmethyl)phenyl)thieno[3,2-b]pyridin-2-yl)methyl)-1-cyclobutylpyrimidine-2,4(1H,3H)-dione] came in with an IC50 of less than 10 nM.
`Cc1cc(Cl)cc(-c2ccnc3cc(CN4C(=O)C5CC5C4=O)sc23)c1CC1CNCCOC1` (stereo not drawn) [Example 112, 3-((7-(2-((1,4-oxazepan-6-yl)methyl)-5-chloro-3-methylphenyl)thieno[3,2-b]pyridin-2-yl)methyl)-3-azabicyclo[3.1.0]hexane-2,4-dione]: the IC50 was less than 10 nM.
Take `Cc1cc(Cl)cc(-c2ccnc3cc(CN4C(=O)C5CC5C4=O)sc23)c1CC1CNCCS1` (stereo not drawn) [Example 113, 3-((7-(5-chloro-3-methyl-2-(thiomorpholin-2-ylmethyl)phenyl)thieno[3,2-b]pyridin-2-yl)methyl)-3-azabicyclo[3.1.0]hexane-2,4-dione]: the IC50 was less than 10 nM.
As to `Cc1cc(Cl)cc(-c2ccnc3cc(CN4C(=O)CCC4C(F)(F)F)sc23)c1CC1CNCCO1` (stereo not drawn) [Example 114, 1-((7-(5-chloro-3-methyl-2-(morpholin-2-ylmethyl)phenyl)thieno[3,2-b]pyridin-2-yl)methyl)-5-(trifluoromethyl)pyrrolidin-2-one], the IC50 lay within 10 to 100 nM.
As to `Cc1cc(Cl)cc(-c2ccnc3cc(CN4C(=O)C5CC5C4=O)sc23)c1CC1COCCN1` (stereo not drawn) [Example 115, 3-((7-(5-chloro-3-methyl-2-(morpholin-3-ylmethyl)phenyl)thieno[3,2-b]pyridin-2-yl)methyl)-3-azabicyclo[3.1.0]hexane-2,4-dione], the IC50 is more than 100 nM.
The compound `Cc1cc(Cl)cc(-c2ccnc3cc(CN4C(=O)C5CCCN5C4=O)sc23)c1CC1CNCCO1` (stereo not drawn) [Example 116, 2-((7-(5-chloro-3-methyl-2-(morpholin-2-ylmethyl)phenyl)thieno[3,2-b]pyridin-2-yl)methyl)tetrahydro-1H-pyrrolo[1,2-c]imidazole-1,3(2H)-dione] displayed an IC50 of less than 10 nM.
Regarding `Cc1cc(Cl)cc(-c2ccnc3cc(CN4C(=O)CN(C)C4=O)sc23)c1CC1CNCCO1` (stereo not drawn) [Example 117, 3-((7-(5-chloro-3-methyl-2-(morpholin-2-ylmethyl)phenyl)thieno[3,2-b]pyridin-2-yl)methyl)-1-methylimidazolidine-2,4-dione], the IC50 was less than 10 nM.
For `Cc1cc(Cl)cc(-c2ccnc3cc(CN4C(=O)C5CC5C4=O)sc23)c1CC1CNCCCO1` (stereo not drawn) [Example 118, 3-((7-(2-((1,4-oxazepan-2-yl)methyl)-5-chloro-3-methylphenyl)thieno[3,2-b]pyridin-2-yl)methyl)-3-azabicyclo[3.1.0]hexane-2,4-dione], the IC50 is less than 10 nM.
In turn, `Cc1cc(Cl)cc(-c2ccnc3cc(CN4C(=O)CCC4=O)sc23)c1CC1CNCC(C)(C)O1` (stereo not drawn) [Example 119, 1-((7-(5-chloro-2-((6,6-dimethylmorpholin-2-yl)methyl)-3-methylphenyl)thieno[3,2-b]pyridin-2-yl)methyl)pyrrolidine-2,5-dione] showed an IC50 of less than 10 nM.
For `Cc1cc(Cl)cc(-c2ccnc3cc(CN4C(=O)C5CC5C4=O)sc23)c1CC1CNCC(C)(C)O1` (stereo not drawn) [Example 120, 3-((7-(5-chloro-2-((6,6-dimethylmorpholin-2-yl)methyl)-3-methylphenyl)thieno[3,2-b]pyridin-2-yl)methyl)-3-azabicyclo[3.1.0]hexane-2,4-dione], the half-maximal inhibitory concentration (IC50) is less than 10 nM.
With `Cc1cc(Cl)cc(-c2ccnc3cc(CN4C(=O)CN(C)C4=O)sc23)c1CC1CNCC(C)(C)O1` (stereo not drawn) [Example 121, 3-((7-(5-chloro-2-((6,6-dimethylmorpholin-2-yl)methyl)-3-methylphenyl)thieno[3,2-b]pyridin-2-yl)methyl)-1-methylimidazolidine-2,4-dione] the figure was less than 10 nM; with `Cc1cc(Cl)cc(-c2ccnc3cc(CN4C(=O)CCCC4C(F)(F)F)sc23)c1CC1CNCCO1` (stereo not drawn) [Example 122, 1-((7-(5-chloro-3-methyl-2-(morpholin-2-ylmethyl)phenyl)thieno[3,2-b]pyridin-2-yl)methyl)-6-(trifluoromethyl)piperidin-2-one], more than 100 nM.
